{
  "source": "paper PMC8595372",
  "about": "(Nature Communications, 2021)",
  "key": {"DYRK1A": {"target": "T1, DYRK1A (Homo sapiens, UniProt Q13627)", "T1 construct": "kinase domain, residues 127–485", "experiment": "biochemical", "design": "nanoDSF thermal shift, Prometheus NT.48, 5 uM protein, ligand-induced melting temperature change versus buffer or DMSO control", "details": "for ΔTm at 1 µM / ΔTm at 10 µM / ΔTm at 100 µM: read-out: ΔTm to control (°C); for ΔTm to control (°C): binder", "procedure": "(§1) Nano-differential scanning fluorimetry measurements were performed for the determination of thermal protein stability using a Prometheus NT.48 (NanoTemper) device operating at the two wavelengths λ = 330 and 350 nm. […] The thermal stability was monitored from 20 to 70 °C at a heating rate of 1.5 °C/min using the PR.ThermControl software. […] Kinases were immobilized to the chip surface by amine coupling. […] Dissociation constants were determined based on fits applying a 1:1 interaction model. b Thermal protein stability measurements were performed using the NanoDSF technique. […] For raw data see Supplementary Table 3. Source data are provided as a Source Data file."}, "HIPK3 [1]": {"target": "T2, HIPK3 (Homo sapiens, UniProt Q9H422)", "T2 construct": "kinase domain, residues 159–562", "T2 sequence (Q9H422 159-562)": "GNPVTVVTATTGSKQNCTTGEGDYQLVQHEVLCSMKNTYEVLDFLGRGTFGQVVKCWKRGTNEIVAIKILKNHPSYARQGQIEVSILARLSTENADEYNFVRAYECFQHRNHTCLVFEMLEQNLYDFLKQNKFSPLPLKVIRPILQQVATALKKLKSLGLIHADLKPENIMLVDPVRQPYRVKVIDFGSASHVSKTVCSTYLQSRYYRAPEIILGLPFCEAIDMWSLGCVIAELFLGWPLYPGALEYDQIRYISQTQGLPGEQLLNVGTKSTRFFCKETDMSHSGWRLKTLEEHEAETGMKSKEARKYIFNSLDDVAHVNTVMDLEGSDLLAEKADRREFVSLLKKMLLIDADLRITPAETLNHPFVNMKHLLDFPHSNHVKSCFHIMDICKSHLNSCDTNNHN", "experiment": "radioactive in vitro kinase assay, His-c-Myc substrate", "assay_type": "biochemical"}, "HIPK3 [2]": {"target": "T2, HIPK3", "experiment": "([…] Å) and SPR; kinase assay IC50 […]", "assay_type": "binding"}, "HIPK3 [3]": {"target": "T2, HIPK3", "experiment": "biochemical", "design": "nanoDSF thermal shift, Prometheus NT.48, 5 uM protein, ligand-induced melting temperature change versus buffer or DMSO control", "details": "read-out: ΔTm to control (°C)", "procedure": "as §1"}, "HIPK2 [4]": {"target": "T3, HIPK2 (Homo sapiens, UniProt Q9H2X6)", "T3 construct": "residues 160–563", "T3 sequence (Q9H2X6 160-563)": "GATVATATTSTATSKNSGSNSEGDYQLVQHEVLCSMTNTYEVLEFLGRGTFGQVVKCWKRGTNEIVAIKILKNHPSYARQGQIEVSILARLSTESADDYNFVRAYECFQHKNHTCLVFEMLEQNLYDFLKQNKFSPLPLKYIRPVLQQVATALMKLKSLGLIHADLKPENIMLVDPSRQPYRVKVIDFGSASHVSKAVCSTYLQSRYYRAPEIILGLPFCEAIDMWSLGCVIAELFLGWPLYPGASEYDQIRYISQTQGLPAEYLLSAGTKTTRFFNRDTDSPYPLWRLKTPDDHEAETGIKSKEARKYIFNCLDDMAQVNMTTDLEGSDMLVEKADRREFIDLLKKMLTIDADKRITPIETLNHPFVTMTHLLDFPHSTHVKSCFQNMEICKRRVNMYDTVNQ", "experiment": "biochemical", "design": "nanoDSF thermal shift, Prometheus NT.48, 5 uM protein, ligand-induced melting temperature change versus buffer or DMSO control", "details": "read-out: ΔTm to control (°C)", "procedure": "as §1"}, "Cdk9": {"target": "T4, Cdk9 (Homo sapiens, UniProt P50750)", "T4 construct": "full-length Cdk9 (residues 1–372) with Cyclin T1 (residues 1–272); with Cyclin T1", "T4 sequence (P50750 whole entry, the tested form may be a part)": "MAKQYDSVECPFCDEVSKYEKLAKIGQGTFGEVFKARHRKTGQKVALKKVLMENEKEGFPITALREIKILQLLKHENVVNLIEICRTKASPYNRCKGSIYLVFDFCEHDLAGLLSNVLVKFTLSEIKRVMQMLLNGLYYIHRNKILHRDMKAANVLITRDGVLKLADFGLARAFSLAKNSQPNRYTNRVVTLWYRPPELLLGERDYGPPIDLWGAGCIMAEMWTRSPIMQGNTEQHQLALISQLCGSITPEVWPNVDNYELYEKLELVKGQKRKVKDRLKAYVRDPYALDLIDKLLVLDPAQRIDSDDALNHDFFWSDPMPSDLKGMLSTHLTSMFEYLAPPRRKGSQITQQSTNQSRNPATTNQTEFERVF", "T4 sequence (O60563 1-272 partner)": "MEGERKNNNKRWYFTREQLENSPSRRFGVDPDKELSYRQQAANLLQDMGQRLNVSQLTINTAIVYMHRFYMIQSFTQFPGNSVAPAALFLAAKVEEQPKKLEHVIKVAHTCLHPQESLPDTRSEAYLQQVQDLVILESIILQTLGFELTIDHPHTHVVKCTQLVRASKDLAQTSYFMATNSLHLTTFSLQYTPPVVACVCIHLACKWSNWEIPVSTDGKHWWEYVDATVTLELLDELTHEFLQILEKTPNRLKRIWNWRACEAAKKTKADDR", "experiment": "biochemical", "design": "nanoDSF thermal shift, Prometheus NT.48, 5 uM protein, ligand-induced melting temperature change versus buffer or DMSO control", "details": "read-out: ΔTm to control (°C)", "procedure": "as §1"}, "Cdk4": {"target": "T5, Cdk4 (Homo sapiens, UniProt P11802)", "T5 construct": "full-length Cdk4 (residues 1–303) with Cyclin D3 (residues 1–292); with Cyclin D3", "T5 sequence (P11802 whole entry, the tested form may be a part)": "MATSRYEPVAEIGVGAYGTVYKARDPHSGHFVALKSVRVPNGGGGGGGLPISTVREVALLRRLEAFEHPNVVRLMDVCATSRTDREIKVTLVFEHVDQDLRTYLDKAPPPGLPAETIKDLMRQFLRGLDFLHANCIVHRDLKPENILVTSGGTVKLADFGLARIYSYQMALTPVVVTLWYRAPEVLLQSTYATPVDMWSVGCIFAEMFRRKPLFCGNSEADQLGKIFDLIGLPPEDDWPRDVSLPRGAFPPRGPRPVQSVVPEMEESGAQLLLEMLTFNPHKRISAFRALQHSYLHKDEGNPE", "T5 sequence (P30281 whole entry partner, the tested form may be a part)": "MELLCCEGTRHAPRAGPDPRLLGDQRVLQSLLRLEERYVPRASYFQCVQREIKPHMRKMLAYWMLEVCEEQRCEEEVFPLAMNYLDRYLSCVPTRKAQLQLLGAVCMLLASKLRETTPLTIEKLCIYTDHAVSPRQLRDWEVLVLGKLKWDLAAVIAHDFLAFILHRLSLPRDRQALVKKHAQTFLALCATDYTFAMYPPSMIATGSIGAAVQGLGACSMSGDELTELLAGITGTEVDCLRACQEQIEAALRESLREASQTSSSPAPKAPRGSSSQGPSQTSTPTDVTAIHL", "experiment": "biochemical", "design": "nanoDSF thermal shift, Prometheus NT.48, 5 uM protein, ligand-induced melting temperature change versus buffer or DMSO control", "details": "read-out: ΔTm to control (°C)", "procedure": "as §1"}, "HIPK1 [5]": {"target": "T6, HIPK1 (Homo sapiens, UniProt Q86Z02)", "T6 construct": "residues 154-554", "T6 sequence (Q86Z02 154-554)": "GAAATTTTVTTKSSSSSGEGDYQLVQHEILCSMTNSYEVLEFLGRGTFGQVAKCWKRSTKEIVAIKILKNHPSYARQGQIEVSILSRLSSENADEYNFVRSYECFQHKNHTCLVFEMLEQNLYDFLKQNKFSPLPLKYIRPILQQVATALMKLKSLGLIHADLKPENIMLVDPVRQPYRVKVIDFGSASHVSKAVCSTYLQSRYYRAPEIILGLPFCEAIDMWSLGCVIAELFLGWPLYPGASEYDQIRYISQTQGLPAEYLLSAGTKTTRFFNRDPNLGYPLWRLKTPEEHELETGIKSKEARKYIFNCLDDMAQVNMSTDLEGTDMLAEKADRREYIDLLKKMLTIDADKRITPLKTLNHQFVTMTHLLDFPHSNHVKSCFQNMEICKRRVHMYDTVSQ", "experiment": "biochemical", "design": "nanoDSF thermal shift, Prometheus NT.48, 5 uM protein, ligand-induced melting temperature change versus buffer or DMSO control", "details": "read-out: ΔTm to control (°C)", "procedure": "as §1"}, "HIPK1 [6]": {"target": "T6, HIPK1", "experiment": "radioactive in vitro kinase assay; nanoDSF shift +[…] °C", "assay_type": "biochemical"}, "HIPK2 [7]": {"target": "T3, HIPK2", "experiment": "SPR single-cycle kinetics; nanoDSF; kinase assay IC50 […]", "assay_type": "binding"}},
  "note": "Where two headings read alike, the source gives them in different places.",
  "data": [
    {"smiles": "Nc1ncnc2c1ncn2[C@@H]1O[C@H](COP(=O)(O)OP(=O)(O)O)[C@@H](O)[C@H]1O", "note": "[ADP]", "values": [
      {"measurement": "ΔTm at 1 µM", "setting": "DYRK1A", "value": -0.1, "unit": "°C"},
      {"measurement": "ΔTm at 10 µM", "setting": "DYRK1A", "value": 0, "unit": "°C"},
      {"measurement": "ΔTm at 100 µM", "setting": "DYRK1A", "value": -0.1, "unit": "°C"}
    ]},
    {"smiles": "Nc1ncnc2c1ncn2[C@@H]1O[C@H](COP(=O)(O)OP(=O)(O)OP(=O)(O)O)[C@@H](O)[C@H]1O", "note": "[ATP]", "values": [
      {"measurement": "ΔTm to control (°C)", "setting": "DYRK1A; 1 uM", "value": -0.2, "unit": "°C"},
      {"measurement": "ΔTm to control (°C)", "setting": "DYRK1A; 10 uM", "value": "+0.1 °C"},
      {"measurement": "ΔTm to control (°C)", "setting": "DYRK1A; 100 uM", "value": 0.0, "unit": "°C"}
    ]},
    {"smiles": "O=C1NC(=O)/C(=C/c2ccc3nccc(-c4ccncc4)c3c2)S1", "note": "[GSK1059615]", "values": [
      {"measurement": "IC50", "setting": "HIPK3 [1]", "value": 1.08, "unit": "µM"}
    ]},
    {"smiles": "CN(C)C[C@H]1CC[C@H](N2C(=O)NCc3cnc4ccc(-c5cc(Cl)c(O)c(Cl)c5)cc4c32)CC1", "note": "[HTH-01-091]", "values": [
      {"measurement": "IC50", "setting": "HIPK3 [1]; read-out: IC50", "value": 1.6, "unit": "µM"}
    ]},
    {"smiles": "CCN1CCN(Cc2ccc(Nc3ncc(F)c(-c4cc(F)c5nc(C)n(C(C)C)c5c4)n3)nc2)CC1", "note": "[abemaciclib]", "values": [
      {"measurement": "Kd", "setting": "HIPK3 [2]", "value": 0.0008, "unit": "µM"},
      {"measurement": "ΔTm at 1 µM", "setting": "HIPK3 [3]", "value": 0.2, "unit": "°C"},
      {"measurement": "ΔTm at 10 µM", "setting": "HIPK3 [3]", "value": 5.3, "unit": "°C"},
      {"measurement": "ΔTm at 100 µM", "setting": "HIPK3 [3]", "value": 7.4, "unit": "°C"},
      {"measurement": "ΔTm at 1 µM", "setting": "HIPK2 [4]", "value": 1.5, "unit": "°C"},
      {"measurement": "ΔTm at 10 µM", "setting": "HIPK2 [4]", "value": 4.7, "unit": "°C"},
      {"measurement": "ΔTm at 100 µM", "setting": "HIPK2 [4]", "value": 7.2, "unit": "°C"},
      {"measurement": "ΔTm at 1 µM", "setting": "Cdk9", "value": 0.6, "unit": "°C"},
      {"measurement": "ΔTm at 10 µM", "setting": "Cdk9", "value": 2.4, "unit": "°C"},
      {"measurement": "ΔTm at 1 µM", "setting": "Cdk4", "value": 4.1, "unit": "°C"},
      {"measurement": "ΔTm at 100 µM", "setting": "Cdk4", "value": 7.9, "unit": "°C"},
      {"measurement": "ΔTm at 1 µM", "setting": "HIPK1 [5]", "value": 0.4, "unit": "°C"},
      {"measurement": "ΔTm at 10 µM", "setting": "HIPK1 [5]", "value": 6.4, "unit": "°C"},
      {"measurement": "ΔTm at 100 µM", "setting": "HIPK1 [5]", "value": 8.7, "unit": "°C"},
      {"measurement": "ΔTm at 1 µM", "setting": "DYRK1A", "value": 0.6, "unit": "°C"},
      {"measurement": "ΔTm at 10 µM", "setting": "DYRK1A", "value": 3.1, "unit": "°C"},
      {"measurement": "ΔTm at 100 µM", "setting": "DYRK1A", "value": 5.2, "unit": "°C"},
      {"measurement": "IC50", "setting": "HIPK1 [6]", "value": 4.53, "unit": "µM"},
      {"measurement": "Kd", "setting": "HIPK2 [7]", "value": 0.0008, "unit": "µM"}
    ]}
  ]
}
